The test is described as follows: Inhibition of HIV-1 Mutant HIV-1 RT enzymes containing the single amino acid substitution V179D.

Molecules are shown by their SMILES.

What is called Ki is the equilibrium dissociation constant of an inhibitor or competing ligand from its target. The molecule `Cc1cc2nc(OCCNC(=S)Nc3ccc(Br)cn3)c3cccn3c2cc1C` [1-(5-Bromo-pyridin-2-yl)-3-[2-(7,8-dimethyl-pyrrolo[1,2-a]quinoxalin-4-yloxy)-ethyl]-thiourea] had a Ki of 800 nM.

As for `S=C(NCCOc1nc2cc(Cl)ccc2n2cccc12)Nc1ccc(Br)cn1` [1-(5-Bromo-pyridin-2-yl)-3-[2-(7-chloro-pyrrolo[1,2-a]quinoxalin-4-yloxy)-ethyl]-thiourea], affinity was put at a Ki of 70 nM.

For the origin of these results see BindingDB's records for doi:10.1021/jm0010365 (Universita' Degli Studi Di Salerno, 2001).
